Experimental data taken from patent EP0100983A1, “Steroid compounds with choleretic activity, a process for their preparation, and therapeutic compounds which contain them as active principle” (PROTER S.p.A., priority 1982, dated 1984).
Structures can show the parent of a compound that is named as a salt.

Legend:
[1] = test system: male albino rats of Wistar stock; test: Choleretic activity in bile-duct (choledocus) cannulated rats, method of D'Armour and coll.: bile flow (test a) and bile dry residue (test b); assay type: in vivo; details: rat
Source text: By way of example, details are given of the activity of 3α,7β-dihydroxy-6/3-cholan-24-oyl acetic acid (A) and of its trimebutine salt (B) compared with ursodeoxycholic acid (C), using the method of D'Armour and coll. (J. Pharmacol. Exp. Theor. 133, 400 (1961)).
This method consists essentially of cannulating the choledocus of the treated animals and collecting the bile before and after treatment with the drugs.
24 male albino rats of Wistar stock were used having an average weight of 400 g and divided into 4 batches of 6 animals each.
In the method used, after the surgical cannulation, the bile was allowed to flow out for about 30-45 minutes in order to regulate the flow, after which the basic bile was collected for 60 minutes.
After this time, the drug was administered into the subpyloric duodenal tract at a dose of 0.5 mM/kg, and the bile was collected in suitable graduated test tubes, the samples of each animal being split into periods of exactly 60 minutes, for a time of 3 hours after treatment. The following were then determined for each animal: • a) the quantity of bile which had flown out after each hour, and • b) the dry residue obtained after drying each sample under vacuum.
The tested compounds were solubilised with stoichiometric quantities of M NaOH, to obtain solutions or suspensions at pH 10.
Physiological solution (S.F.) adjusted to pH 10 by M NaOH was used for the control group.
The data obtained in the described experiments by administering equimolar doses of the products A and B and of the comparison drug C are shown on the accompanying graphs.

[2] = test system: Wistar rats; test: Acute toxicity by oral administration in the rat; assay type: in vivo
Protocol: Acute toxicity was also tested by oral administration of the acid A and the salt B in the rat in comparison with ursodeoxycholic acid. 60 Wistar rats of the two sexes were used having an average weight of 200 g, divided randomly into three batches of 10 males and 10 females and treated orally by gastric probe with the following products: • batch 1: ursodeoxycholic acid (C) - 15% suspension in a 10% solution of gum arabic; […] equivalent to 3 g/kg of product; • batch 2: product (A) - 15% suspension in a 10% solution of gum arabic: 20 ml/kg equivalent to 3 g/kg of product; • batch 3: product (B) - 15% suspension in a 10% solution of gum arabic: 20 ml/kg equivalent to 3 g/kg of product.
The animals, kept under observation for two weeks, registered no case of death or other toxicity symptom.

[3] = test system: guinea pig ileum; test: In vitro antispastic activity on the guinea pig ileum against acetylcholine bromide; details: relative to trimebutine hydrochloride
Source text: Compound B was also used in "in vibro" antispastic activity tests on the guinea pig ileum, using acetylcholine bromide as […] in canparison with trimebutine hydrochloride.

Structure (SMILES): C[C@H](CCC(=O)O)[C@H]1CC[C@H]2[C@@H]3[C@@H](O)C[C@@H]4C[C@H](O)CC[C@]4(C)[C@H]3CC[C@]12C [ursodeoxycholic acid, 3α ,7β-dihydroxy-6β-cholan-24-oic acid, reference compound]
- duration of the action ([1]; 0.5 mM/kg intraduodenal, bile dry residue test (Figure 2)): 1 h

Structure (SMILES): CC(CCC(=O)OCC(=O)O)C1CCC2C3C(O)CC4CC(O)CCC4(C)C3CCC12C (stereo not drawn) [A, 3α,7β-dihydroxy-6β-cholan-24-oyl acetic acid]
- maximum intensity action on the bile flow ([1]; 0.5 mM/kg into the subpyloric duodenal tract, compared with ursodeoxycholic acid (C) at equal dose, Figure 1): practically equivalent to that of the comparison drug
- activity on the bile flow after 1 hour ([1]; 0.5 mM/kg intraduodenal, 1 hour after treatment, relative to comparison drug C, Figure 1): slightly less
- activity on the bile flow after 2 hours ([1]; 0.5 mM/kg intraduodenal, 2 hours after treatment, relative to comparison drug C, Figure 1): greater
- dry residual content of the bile (indicative of the bile salt content), maximum values ([1]; 0.5 mM/kg intraduodenal, compared with ursodeoxycholic acid, Figure 2): practically equal to that obtained after treatment with ursodeoxycholic acid
- tolerability when administered orally in a single dose ([2]; single oral dose 3 g/kg): very well tolerated

Structure (SMILES): CC(CCC(=O)OCC(=O)O)C1CCC2C3C(O)CC4CC(O)CCC4(C)C3CCC12C (stereo not drawn) [Compound B, 2-dimethylamino-2-phenylbutyl 3,4,5-trimethoxybenzoate salt of 3α ,7β-dihydroxy-6β-cholan-24-oyl acetic acid]
- activity on the bile flow after 3 hours ([1]; 0.5 mM/kg intraduodenal, 3 hours after treatment, Figure 1): high
- toxicity (concluding statement) ([2]; oral): absolute absence of toxicity
- antispastic activity [3]: approximately double that of trimebutine
